Assay results as given in US11192900B2, “Substituted 1,6-dihydropyridinones and 1,2-dihydroisoquinolinones as bet inhibitors” (NUVATION BIO INC., priority 2018, dated 2021).

Biological target: BRD4-2 (Homo sapiens (Human), UniProt O60885)
Assay: Bromodomain and Extraterminal Domain (BET) Binding Assay
Details: Table 3; read-out: BRD4-2 IC50
Procedure: The bromodomain binding assays were performed by Reaction Biology Corp., Malvern, Pa., USA (www.reactionbiology.com). The BET binding assays were conducted in 384 well microplates in assay buffer (50 mM HEPES-HCl, pH 7.5, 100 mM NaCl, 1 mg/ml BSA, 0.05% CHAPS, and 0.5% DMSO) with compounds added as DMSO stocks at a single concentration or with 10-point dose response titrations. BET protein or assay buffer were delivered to the appropriate wells of the microplate. Test compound was then delivered by acoustic technology via a Labcyte Echo550 liquid handler. The microplate was centrifuged for 5 min and pre-incubated for 30 min at RT with gentle shaking. The ligand (histone H4 peptide (1-21) K5/8/12/16Ac-biotin) was delivered and the microplate was again centrifuged for 5 min and allowed to incubate for 30 min at RT with gentle shaking. Donor beads were then added in the absence of light and the microplate was centrifuged and gently shaken. After 5 min, acceptor beads were added in the absence of light and the microplate was centrifuged and gently shakenin the dark for 60 min. The microplate was read using a Perkin Elmer EnSpire Alpha plate reader (λEx/λEm=680/520-620 nm). Percent inhibition was calculated relative to positive and negative controls on a per plate basis. For titration experiments, IC50 values were determined by fitting the percent inhibition versus compound concentration.

SMILES	IC50
C=CC(=O)Nc1ccc(Oc2ccc(F)cc2F)c(-c2cn(C)c(=O)c3ccccc23)c1 [Compound 9, N-(4-(2,4-difluorophenoxy)-3-(2-methyl-1-oxo-1,2-dihydroisoquinolin-4-yl)phenyl)acrylamide]	0.319 µM
C=CS(=O)(=O)Nc1ccc(Oc2ccc(F)cc2F)c(-c2cn(C)c(=O)c3c2CCNC3)c1 [Compound 14, N-(4-(2,4-difluorophenoxy)-3-(2-methyl-1-oxo-1,2,5,6,7,8-hexahydro-2,7-naphthyridin-4-yl)phenyl)ethenesulfonamide]	> 10 µM
C=CS(=O)(=O)Nc1ccc(Oc2ccc(F)cc2F)c(-c2c[nH]c(=O)c3ccccc23)c1 [Compound 18, N-(4-(2,4-difluorophenoxy)-3-(1-oxo-1,2-dihydroisoquinolin-4-yl)phenyl)ethenesulfonamide]	> 10 µM
C=CS(=O)(=O)Nc1ccc(Oc2ccc(F)cc2F)c(-c2cnc(=O)n(C)c2)c1 [Compound 19, N-(4-(2,4-difluorophenoxy)-3-(1-methyl-2-oxo-1,2-dihydropyrimidin-5-yl)phenyl)ethenesulfonamide]	1.45 µM
C=CS(=O)(=O)Nc1ccc(OC)c(-c2cc(NC)c(=O)n(C)c2)c1 [Compound 20, N-(4-methoxy-3-(1-methyl-5-(methylamino)-6-oxo-1,6-dihydropyridin-3-yl)phenyl)ethenesulfonamide]	3.86 µM
C=CS(=O)(=O)Nc1ccc(Oc2ccc(F)cc2F)c(-c2c[nH]c(=O)c(NC)c2)c1 [Compound 22, N-(4-(2,4-difluorophenoxy)-3-(5-(methylamino)-6-oxo-1,6-dihydropyridin-3-yl)phenyl)ethenesulfonamide]	3.85 µM
C=CC(=O)Nc1cccc(Oc2ccc(F)cc2)c1-c1cc(NC)c(=O)n(C)c1 [Compound 23, N-(3-(4-fluorophenoxy)-2-(1-methyl-5-(methylamino)-6-oxo-1,6-dihydropyridin-3-yl)phenyl)acrylamide]	> 10 µM
C=CC(=O)Nc1ccc(OC(C)C)c(-c2cc(NC)c(=O)n(C)c2)c1 [Compound 24, N-(4-isopropoxy-3-(1-methyl-5-(methylamino)-6-oxo-1,6-dihydropyridin-3-yl)phenyl)acrylamide]	0.779 µM
C=CC(=O)Nc1ccc(Oc2ccc(F)cc2)c(-c2cn(C)c(=O)c3ccccc23)c1 [Compound 26, N-(4-(4-fluorophenoxy)-3-(2-methyl-1-oxo-1,2-dihydroisoquinolin-4-yl)phenyl)acrylamide]	0.281 µM
C=CC(=O)Nc1ccc(OC(F)(F)F)c(-c2cn(C)c(=O)c3ccccc23)c1 [Compound 27, N-(3-(2-methyl-1-oxo-1,2-dihydroisoquinolin-4-yl)-4-(trifluoromethoxy)phenyl)acrylamide]	3.25 µM
C=CC(=O)Nc1ccc(Oc2ccc(F)cc2)c(-c2cn(C(C)C)c(=O)c3ccccc23)c1 [Compound 28, N-(4-(4-fluorophenoxy)-3-(2-isopropyl-1-oxo-1,2-dihydroisoquinolin-4-yl)phenyl)acrylamide]	17.9 µM
C=CC(=O)Nc1ccc(Oc2ccc(Cl)cc2)c(-c2cn(C)c(=O)c3ccccc23)c1 [Compound 31, N-(4-(4-chlorophenoxy)-3-(2-methyl-1-oxo-1,2-dihydroisoquinolin-4-yl)phenyl)acrylamide]	0.413 µM
C=CC(=O)Nc1ccc(Oc2ccc(Cl)c(F)c2)c(-c2cn(C)c(=O)c3ccccc23)c1 [Compound 32, N-(4-(4-chloro-3-fluorophenoxy)-3-(2-methyl-1-oxo-1,2-dihydroisoquinolin-4-yl)phenyl)acrylamide]	0.717 µM
C=CC(=O)Nc1ccc(Nc2ccc(F)cc2F)c(-c2cc(NC)c(=O)n(C)c2)c1 [Compound 288, N-(4-(2,4-difluorophenylamino)-3-(1-methyl-5-(methylamino)-6-oxo-1,6-dihydropyridin-3-yl)phenyl)acrylamide]	0.889 µM
C=CC(=O)Nc1ccc(Nc2ccc(C)cc2)c(-c2cn(C)c(=O)c3ccccc23)c1 [Compound 309, N-(3-(2-methyl-1-oxo-1,2-dihydroisoquinolin-4-yl)-4-(p-tolylamino)phenyl) acrylamide]	2.12 µM
C=CC(=O)Nc1ccc(Nc2c(F)cccc2F)c(-c2cn(C)c(=O)c3ccccc23)c1 [Compound 319, N-(4-(2,6-difluorophenylamino)-3-(2-methyl-1-oxo-1,2-dihydroisoquinolin-4-yl)phenyl)acrylamide]	1.8 µM
C=CC(=O)N(C)c1ccc(Oc2ccc(F)cc2F)c(-c2cn(C)c(=O)c3ccccc23)c1 [Compound 396, N-(4-(2,4-difluorophenoxy)-3-(2-methyl-1-oxo-1,2-dihydroisoquinolin-4-yl)phenyl)-N-methylacrylamide]	0.298 µM
C=CC(=O)Nc1ccc(Oc2ccc(F)cc2F)c(-c2cn(C)c(=O)c3c2OCC(=O)N3)c1 [Compound 404, N-(4-(2,4-difluorophenoxy)-3-(6-methyl-3,5-dioxo-3,4,5,6-tetrahydro-2H-pyrido[4,3-b][1,4]oxazin-8-yl)phenyl)acrylamide]	1.83 µM

Compounds with a lower IC50, results first:

IC50	SMILES
0.022 µM	C=CS(=O)(=O)Nc1ccc(Oc2ccc(C)cc2)c(-c2cc(NC)c(=O)n(C)c2)c1 [Compound 4, N-(3-(1-methyl-5-(methylamino)-6-oxo-1,6-dihydropyridin-3-yl)-4-(p-tolyloxy)phenyl)ethenesulfonamide]
0.142 µM	C=CC(=O)Nc1ccc(Oc2ccc(OC)cc2)c(-c2cc(NC)c(=O)n(C)c2)c1 [Compound 5, N-(4-(4-methoxyphenoxy)-3-(1-methyl-5-(methylamino)-6-oxo-1,6-dihydropyridin-3-yl)phenyl)acrylamide]
0.12 µM	C=CC(=O)Nc1ccc(Oc2ccc(C)cc2)c(-c2cc(NC)c(=O)n(C)c2)c1 [Compound 6, N-(3-(1-methyl-5-(methylamino)-6-oxo-1,6-dihydropyridin-3-yl)-4-(p-tolyloxy)phenyl)acrylamide]
0.024 µM	C=CS(=O)(=O)Nc1ccc(Oc2ccc(F)cc2)c(-c2cc(NC)c(=O)n(C)c2)c1 [Compound 7, N-(4-(4-fluorophenoxy)-3-(1-methyl-5-(methylamino)-6-oxo-1,6-dihydropyridin-3-yl)phenyl)ethenesulfonamide]
0.017 µM	C=CS(=O)(=O)Nc1ccc(Oc2ccc(OC)cc2)c(-c2cc(NC)c(=O)n(C)c2)c1 [Compound 8, N-(4-(4-methoxyphenoxy)-3-(1-methyl-5-(methylamino)-6-oxo-1,6-dihydropyridin-3-yl)phenyl)ethenesulfonamide]
0.056 µM	C=CS(=O)(=O)Nc1ccc(Oc2ccc(F)cc2F)c(-c2cn(C)c(=O)c3ccccc23)c1 [Compound 10, N-(4-(2,4-difluorophenoxy)-3-(2-methyl-1-oxo-1,2-dihydroisoquinolin-4-yl)phenyl)ethenesulfonamide]
0.014 µM	C=CS(=O)(=O)Nc1ccc(Oc2ccc(F)cc2)c(-c2cn(C)c(=O)c3ccccc23)c1 [Compound 11, N-(4-(4-fluorophenoxy)-3-(2-methyl-1-oxo-1,2-dihydroisoquinolin-4-yl)phenyl)ethenesulfonamide]
0.024 µM	C=CS(=O)(=O)Nc1ccc(Oc2ccc(C)cc2)c(-c2cn(C)c(=O)c3ccccc23)c1 [Compound 13, N-(3-(2-methyl-1-oxo-1,2-dihydroisoquinolin-4-yl)-4-(p-tolyloxy)phenyl)ethenesulfonamide]
0.034 µM	C=CS(=O)(=O)N(C)c1ccc(Oc2ccc(F)cc2F)c(-c2cc(NC)c(=O)n(C)c2)c1 [Compound 15, N-(4-(2,4-difluorophenoxy)-3-(1-methyl-5-(methylamino)-6-oxo-1,6-dihydropyridin-3-yl)phenyl)-N-methylethenesulfonamide]
0.011 µM	C=CS(=O)(=O)Nc1ccc(Nc2ccc(F)cc2F)c(-c2cc(NC)c(=O)n(C)c2)c1 [Compound 21, N-(4-(2,4-difluorophenylamino)-3-(1-methyl-5-(methylamino)-6-oxo-1,6-dihydropyridin-3-yl)phenyl)ethenesulfonamide]
0.264 µM	C=CC(=O)Nc1ccc(Oc2ccc(C)cc2)c(-c2cn(C)c(=O)c3ccccc23)c1 [Compound 25, N-(3-(2-methyl-1-oxo-1,2-dihydroisoquinolin-4-yl)-4-(p-tolyloxy)phenyl)acrylamide]
0.239 µM	C#CC(=O)Nc1ccc(Oc2ccc(F)cc2F)c(-c2cn(C)c(=O)c3ccccc23)c1 [Compound 74, N-(4-(2,4-difluorophenoxy)-3-(2-methyl-1-oxo-1,2-dihydroisoquinolin-4-yl)phenyl)propiolamide]
0.261 µM	CC#CC(=O)Nc1ccc(Oc2ccc(F)cc2F)c(-c2cn(C)c(=O)c3ccccc23)c1 [Compound 393, N-(4-(2,4-difluorophenoxy)-3-(2-methyl-1-oxo-1,2-dihydroisoquinolin-4-yl)phenyl)but-2-ynamide]
0.134 µM	C=CC(=O)N(C)c1ccc(Oc2ccc(F)cc2F)c(-c2cc(NC)c(=O)n(C)c2)c1 [Compound 394, N-(4-(2,4-difluorophenoxy)-3-(1-methyl-5-(methylamino)-6-oxo-1,6-dihydropyridin-3-yl)phenyl)-N-methylacrylamide]
0.206 µM	C=CC(=O)Nc1ccc(Oc2ccc(F)cc2F)c(-c2nn(C)c(=O)cc2OC)c1 [Compound 403, N-(4-(2,4-difluorophenoxy)-3-(4-methoxy-1-methyl-6-oxo-1,6-dihydropyridazin-3-yl)phenyl)acrylamide]
